Where “and” joins values, the source holds several entries; their conditions need not be identical. Identical values can stand only once.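 Briefly, cells in 96-well plates were exposed to five compound concentrations for 48 h, and endpoints were estimated by linear interpolation. Abbreviation: GI50, concentration required for 50% inhibition of growth. TGI: total growth inhibition.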

The test system of the first assay is HOP-62 NSCLC. Kind of assay: growth of human tumour cells (NCI), 48 h.
Regarding `COC(=O)c1ccccc1NC(=O)C(=O)Cc1nc2c3c(ccc2[nH]c1=O)C(=O)c1ccccc1C3=O`, the TGI came out at 39.1 µM.

Compound `CCOC(=O)C(C)(C)Oc1ccc2c(-c3ccccc3)cc(=O)oc2c1` returned a TGI of 63.7 µM.

Regarding `CCCC1C(=O)CCc2c(OC)ccc(OC)c21` (stereo not given), the TGI is greater than 100 µM.

With `CCOC(=O)Cn1c(C(F)(F)F)nc2nc(Cl)c(Cl)nc21`, the TGI was found to be 60.4 µM.

As to `O=C1NC(=NCCc2cccc(F)c2)S/C1=C\c1ccc2ncccc2c1`, the GI50 is 2.15 µM and the TGI is greater than 25 µM.

In the case of `COc1cc2c(c3oc4c(O)cccc4c(=O)c13)CC(C(C)(O)CO)O2` (stereo not given), the TGI is greater than 100 µM.

On to `OCc1cc2ccccc2c2c3c(ccc12)OCO3`, for which the GI50 is 31.6 µM and the TGI worked out at 131 µM.

In the case of `COc1cc2c(cc1OCCCCN1CCN(CC(=O)Nc3ccc(Cl)cc3C(=O)c3ccccc3Cl)CC1)N=CC1CCCN1C2=O` (stereo not given), the GI50 is 0.196 µM and the TGI was determined as 0.411 µM.

`OC1CSSC1Cn1cnc2c(Nc3ccc(OCc4cccc(F)c4)c(Cl)c3)ncnc21` (stereo not given): the GI50 is 0.94 µM and the TGI worked out at 2.79 µM.

For the next assay, the system named is SK-MEL-28 melanoma. Briefly: growth of human tumour cells (NCI), 48 h.
For `Cc1c(C(=O)CC(=O)C(=O)Nc2ccccc2C(F)(F)F)[n+](=O)c2ccccc2n1[O-]`, the TGI turned out to be 92.1 µM.

Take `Cc1cc(N(CCC#N)CCC#N)ccc1N=Nc1ccc(S(N)(=O)=O)cc1`: the TGI was greater than 100 µM.

`Cc1nc2c(ccc3ncccc32)[nH]1` gave a TGI greater than 100 µM.

`C1=C2/CC[C@H](Sc3ccccc3)C2C2(CCCCC/1)OCCO2` (stereo not given in full) gave a TGI greater than 100 µM.

With `O=C(CCc1nc(=S)[nH][nH]1)Nc1cc(Cl)c(Cl)cc1Cl`, the TGI is greater than 100 µM.

With `CN(C)C(=S)N=C(Nc1ccccc1)Nc1ccccc1`, the TGI is greater than 100 µM.

On to `Nc1ccccc1S(=O)(=O)N(CC(=O)O)c1ccccc1`, for which the TGI was greater than 100 µM.

Turning to `CC1(C)C(=O)/C=C\C(=O)C(C)(C)C2=CC=C(O2)C(C)(C)C(=O)/C=C\C(=O)C(C)(C)C2=CC=C1O2`, the TGI is greater than 100 µM.

On to `COc1ccccc1N1C(=O)C2c3[nH]c4ccccc4c3C3CCC(C(C)(C)C)CC3C2C1=O` (stereo not given), for which the TGI was greater than 100 µM.

Turning to `Cc1cc(NS(=O)(=O)c2ccc(Nc3c4ccccc4nc4c(C(=O)N5CCN(CCOS(C)(=O)=O)CC5)cccc34)cc2)no1`, the TGI is greater than 100 µM.

On to `O=C(O)CCC(NC(=O)c1ccc(Nc2nc3ccccc3nc2-c2cccs2)cc1)C(=O)O` (stereo not given), for which the TGI is greater than 100 µM.

`COc1cc2ccnc([C@@H](OC(=O)c3ccccc3)c3ccc(OC)c(OC)c3OC)c2cc1OC` had a TGI greater than 100 µM.

With `CCn1c(C)nn2c(=O)c3ccccc3nc2c1=O`, the TGI was greater than 100 µM.

In the case of `COC(=O)/C(C#N)=C1\NC(=O)c2ccccc21`, the TGI was greater than 100 µM.

As for `O=C(O)CCNCCCNCCC(=O)O`, the TGI is greater than 100 µM.

With `CC(=O)[CH-]C(=O)c1ccccc1.CC(=O)[CH-]C(=O)c1ccccc1.CN(C)c1ccc([O-])cc1.CN(C)c1ccc([O-])cc1.Cl.[Ti+4]`, the GI50 was greater than 31.6 µM and the TGI was greater than 31.6 µM.

The compound `NC1=NCCC1(c1ccccc1)c1ccccn1` (stereo not given) had a TGI greater than 100 µM.

The compound `CCCCCCCCCCCC(=O)OCCOCCOCCOCCOCCOCc1ccccc1` registered a TGI greater than 100 µM.

For `CCCCCCCCCCCCCC(=O)OC(/C=C/C(C)C)C(O)C(O)C(OC)C(=O)NC1CCCCN(C)C1=O` (stereo not given), the GI50 was greater than 49 µM; the TGI is 7.64 µM and > 49 µM.

With `CCOC(=O)CCC1(C(=O)OCC)CCCCC1=O` (stereo not given), the TGI is greater than 100 µM.

With `COC(=O)c1ccccc1NC(=O)C(=O)Cc1nc2c3c(ccc2[nH]c1=O)C(=O)c1ccccc1C3=O`, the TGI is greater than 100 µM.

With `CCOC(=O)C(C)(C)Oc1ccc2c(-c3ccccc3)cc(=O)oc2c1`, the TGI was greater than 100 µM.

As for `CCOC(=O)Cn1c(C(F)(F)F)nc2nc(Cl)c(Cl)nc21`, the TGI is greater than 100 µM.

`O=C1NC(=NCCc2cccc(F)c2)S/C1=C\c1ccc2ncccc2c1`: the GI50 was greater than 21.4 µM and the TGI is greater than 25 µM.

For the compound `COc1cc2c(c3oc4c(O)cccc4c(=O)c13)CC(C(C)(O)CO)O2` (stereo not given), the TGI was greater than 100 µM.

Regarding `OCc1cc2ccccc2c2c3c(ccc12)OCO3`, the GI50 is 35.3 µM and the TGI is 350 µM.

Consider `COc1cc2c(cc1OCCCCN1CCN(CC(=O)Nc3ccc(Cl)cc3C(=O)c3ccccc3Cl)CC1)N=CC1CCCN1C2=O` (stereo not given), for which the GI50 is 0.229 µM and the TGI was determined as 0.453 µM.

Take `OC1CSSC1Cn1cnc2c(Nc3ccc(OCc4cccc(F)c4)c(Cl)c3)ncnc21` (stereo not given): the GI50 was 0.591 µM and the TGI was found to be 4.64 µM.

Another assay deals with SNB-78 CNS. Kind of assay: growth of human tumour cells (NCI), 48 h.
In turn, `Cc1c(C(=O)CC(=O)C(=O)Nc2ccccc2C(F)(F)F)[n+](=O)c2ccccc2n1[O-]` gave a TGI greater than 100 µM.

Compound `Cc1cc(N(CCC#N)CCC#N)ccc1N=Nc1ccc(S(N)(=O)=O)cc1` displayed a TGI greater than 100 µM.

On to `C1=C2/CC[C@H](Sc3ccccc3)C2C2(CCCCC/1)OCCO2` (stereo not given in full), for which the TGI was greater than 100 µM.

Consider `O=C(CCc1nc(=S)[nH][nH]1)Nc1cc(Cl)c(Cl)cc1Cl`, for which the TGI is greater than 100 µM.

`CN(C)C(=S)N=C(Nc1ccccc1)Nc1ccccc1` yielded a TGI greater than 100 µM.

The compound `CC1(C)C(=O)/C=C\C(=O)C(C)(C)C2=CC=C(O2)C(C)(C)C(=O)/C=C\C(=O)C(C)(C)C2=CC=C1O2` came in with a TGI greater than 100 µM.

In turn, `COc1ccccc1N1C(=O)C2c3[nH]c4ccccc4c3C3CCC(C(C)(C)C)CC3C2C1=O` (stereo not given) returned a TGI greater than 100 µM.

Turning to `Cc1cc(NS(=O)(=O)c2ccc(Nc3c4ccccc4nc4c(C(=O)N5CCN(CCOS(C)(=O)=O)CC5)cccc34)cc2)no1`, the TGI was greater than 100 µM.

Turning to `O=C(O)CCC(NC(=O)c1ccc(Nc2nc3ccccc3nc2-c2cccs2)cc1)C(=O)O` (stereo not given), the TGI is greater than 100 µM.

Consider `COc1cc2ccnc([C@@H](OC(=O)c3ccccc3)c3ccc(OC)c(OC)c3OC)c2cc1OC`, for which the TGI was greater than 100 µM.

`CCn1c(C)nn2c(=O)c3ccccc3nc2c1=O` had a TGI greater than 100 µM.

Consider `COC(=O)/C(C#N)=C1\NC(=O)c2ccccc21`, for which the TGI was greater than 100 µM.

`NC1=NCCC1(c1ccccc1)c1ccccn1` (stereo not given) showed a TGI greater than 100 µM.

With `CCCCCCCCCCCC(=O)OCCOCCOCCOCCOCCOCc1ccccc1`, the TGI was greater than 100 µM.

With `CCCCCCCCCCCCCC(=O)OC(/C=C/C(C)C)C(O)C(O)C(OC)C(=O)NC1CCCCN(C)C1=O` (stereo not given), the TGI came out at 14.8 µM.

Turning to `CCOC(=O)CCC1(C(=O)OCC)CCCCC1=O` (stereo not given), the TGI is greater than 100 µM.

`COC(=O)c1ccccc1NC(=O)C(=O)Cc1nc2c3c(ccc2[nH]c1=O)C(=O)c1ccccc1C3=O`: the TGI is greater than 100 µM.

`CCCC1C(=O)CCc2c(OC)ccc(OC)c21` (stereo not given): the TGI was greater than 100 µM.

The values are drawn from PubChem BioAssay (NCI).
